From PMC10038264, “A new family of glutamate-gated chloride channels in parasitic sea louse Caligus rogercresseyi: A subunit refractory to activation by ivermectin is dominant in heteromeric assemblies” (PLOS Pathogens, 2023)
Where two headings read alike, the source gives them in different places.

Legend:
[1] = tested on: coexpressed CrGluCl-C:CrGluCl-B; assay: Voltage-clamp of oocytes coexpressing CrGluCl-C and CrGluCl-B; assay type: cell-based, Caligus rogercresseyi; conditions: for Iver response to activation: B:C ratio 1:1, 1 μM ivermectin
Protocol: (§1) Adult female Xenopus laevis frogs were anaesthetized by immersion in a1g/L solution tricaine (Ethyl 3-aminobenzoate methanesulfonate, Sigma) buffered to pH 7 with NaHCO3. Surgery was performed 30–40 min later, once the frog was completely anaesthetized judging by loss of reflexes. Ovarian lobes were removed through 1 cm abdominal incision and then kept at 16°C in Barth’s modified solution containing (in mM): 88 NaCl, 1 KCl, 0.4 CaCl2, 0.3 Ca (NO3)2, 0.8 MgSO4, 2.4 NaHCO3, 5 Hepes, 2.5 sodium pyruvate, 100 μg/ml gentamicin sulfate, 100 U/ml penicillin, 100 μg/ml streptomycin, 250 μg/ml amphotericin B, 0.22μm filtered and adjusted to pH 7.5 with Tris-Base. Osmolarity was brought to 220 mOsm with saccharose. The oocytes were manually defolliculated on the same day of extraction and the following day 20 ng cRNA in nuclease-free water was injected into stage V-VI oocytes using a FemtoJet microinjector (Eppendorf). Finally, the injected oocytes were stored in 96 well plates containing Barth’s modified solution and kept at 16°C until experiment day.
(§2) Current measurements at controlled membrane potentials (voltage-clamp experiments) were performed using two intracellular microelectrodes in defolliculated Xenopus oocytes previously microinjected with 20 ng of cRNA. Voltage-clamp recording was performed at room temperature using a TURBO TEC-10CX amplifier (npi electronic GmbH, Tamm, Germany) and PClamp 10.6 software (Axon Instruments, USA), 1 to 4 days after oocyte injection. The oocytes were recorded in a chamber (Model RC-1Z, Warner Instrumenst, USA) under continuous superfusion. […] Reference was an Ag-AgCl electrode connected to the bath via a 3 M KCl in 3% agar bridge. Currents were recorded continuously during the experiments without interruptions for solution changes. […] The signal filtered at 1 kHz was acquired with a Digidata 1440A Analog-to-Digital Converter and analyzed with Axon pClamp 10.6 software. […]

[2] = tested on: coexpressed CrGluCl-E:CrGluCl-C; assay: Voltage-clamp of oocytes coexpressing CrGluCl-E and CrGluCl-C; assay type: cell-based, Caligus rogercresseyi; conditions: C:E ratio 1:1
Protocol: as §1, §2

CrGluCl-E = assay: Two-electrode voltage-clamp of Xenopus oocytes expressing CrGluCl-E; assay type: cell-based, Caligus rogercresseyi; conditions: CrGluCl-E alone; glutamate up to 1mM, 1μM ivermectin
Protocol: as §1, with “The oocytes were manually defolliculated on the same day of extraction and the following day 20 ng cRNA in nuclease-free water was injected into stage V-VI oocytes using a FemtoJet microinjector (Eppendorf). Finally, the injected oocytes were stored in 96 well plates containing Barth’s modified solution and kept at 16°C until experiment day.” left out
(§3) Current measurements at controlled membrane potentials (voltage-clamp experiments) were performed using two intracellular microelectrodes in defolliculated Xenopus oocytes previously microinjected with 20 ng of cRNA. […] The oocytes were recorded in a chamber (Model RC-1Z, Warner Instrumenst, USA) under continuous superfusion. […] Currents were recorded continuously during the experiments without interruptions for solution changes. […] The signal filtered at 1 kHz was acquired with a Digidata 1440A Analog-to-Digital Converter and analyzed with Axon pClamp 10.6 software. […]

[3] = molecular target: coexpressed CrGluCl-E:CrGluCl-A (Caligus rogercresseyi, UniProt A0A1W6LZ70); assay: Voltage-clamp of oocytes coinjected with CrGluCl-E and CrGluCl-A; assay type: cell-based; conditions: E:A ratio 1:1
coexpressed CrGluCl-E:CrGluCl-A, sequence (A0A1W6LZ70 entry or part of it): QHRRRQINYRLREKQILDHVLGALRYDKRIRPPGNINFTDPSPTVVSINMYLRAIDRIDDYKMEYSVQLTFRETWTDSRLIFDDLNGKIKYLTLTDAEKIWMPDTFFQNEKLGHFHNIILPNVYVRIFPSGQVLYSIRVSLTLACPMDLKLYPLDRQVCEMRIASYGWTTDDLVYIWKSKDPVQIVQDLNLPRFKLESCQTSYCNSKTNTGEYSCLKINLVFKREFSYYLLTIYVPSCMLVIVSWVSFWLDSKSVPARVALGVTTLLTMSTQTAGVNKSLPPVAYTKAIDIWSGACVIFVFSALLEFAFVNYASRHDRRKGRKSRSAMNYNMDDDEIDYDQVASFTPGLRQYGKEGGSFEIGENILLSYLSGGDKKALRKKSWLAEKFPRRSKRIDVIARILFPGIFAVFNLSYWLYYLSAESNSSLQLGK
Protocol: as §1, with “The oocytes were manually defolliculated on the same day of extraction and the following day 20 ng cRNA in nuclease-free water was injected into stage V-VI oocytes using a FemtoJet microinjector (Eppendorf). Finally, the injected oocytes were stored in 96 well plates containing Barth’s modified solution and kept at 16°C until experiment day.” left out
as §3

CeGluClβ (CeGLC-2) = conditions: cited from earlier work
CrGluCl-A = CrGluCl-A (Caligus rogercresseyi, UniProt A0A1W6LZ70); conditions: cited from earlier work
CrGluCl-A, sequence (A0A1W6LZ70 entry or part of it): as above

[4] = tested on: coexpressed CrGluCl-A:CrGluCl-B; assay: Voltage-clamp of oocytes coexpressing CrGluCl-A and CrGluCl-B; assay type: cell-based, Caligus rogercresseyi
Protocol: as §1
Current measurements at controlled membrane potentials (voltage-clamp experiments) were performed using two intracellular microelectrodes in defolliculated Xenopus oocytes previously microinjected with 20 ng of cRNA. Voltage-clamp recording was performed at room temperature using a TURBO TEC-10CX amplifier (npi electronic GmbH, Tamm, Germany) and PClamp 10.6 software (Axon Instruments, USA), 1 to 4 days after oocyte injection. The oocytes were recorded in a chamber (Model RC-1Z, Warner Instrumenst, USA) under continuous superfusion. […] Reference was an Ag-AgCl electrode connected to the bath via a 3 M KCl in 3% agar bridge. Currents were recorded continuously during the experiments without interruptions for solution changes. Oocytes were held at -30 mV and a voltage protocol consisting of a voltage drop to -100 mV for 25ms followed by a 360 ms ramp from -100 mV to 60mV applied with a period of 565 ms was continuously given. The signal filtered at 1 kHz was acquired with a Digidata 1440A Analog-to-Digital Converter and analyzed with Axon pClamp 10.6 software. The solution that bathed the oocytes during the electrophysiological recordings had the following composition (mM): 115 NaCl, 2 KCl, 1.8 CaCl2, 1 MgCl2, 10 HEPES pH 7.5 obtained with NaOH. For the low chloride solution, all the NaCl was replaced with the gluconate salt of Na. This decreases chloride concentration from 122.6 to 7.6 mM while increasing that of gluconate from 0 to 115 mM. The stock solutions of the drugs in dimethyl sulfoxide (DMSO) were: 10 mM emamectin, 10 mM ivermectin, 100 mM picrotoxin. These were diluted in bath solution to obtain final concentrations.
The currents were normalized according to the extrapolated maximum current delivered by the Hill adjustment. In this way, the concentration that generates 50% of the maximum effect (EC50) and the Hill coefficient (nH) for each situation were obtained.

Compound: N[C@@H](CCC(=O)O)C(=O)O [glutamate, L-glutamate]
- EC50 ([1]; B:C ratio 1:1): 53 ± 18.8 µM
- EC50 [2]: 36.5 ± 22.5 µM
- response (current activation) (CrGluCl-E): failed to show any response
- nH (glutamate) [3]: 2.5 ± 0.3
- EC50 (CeGluClβ (CeGLC-2); read-out: EC50 glutamate, CeGluClβ): 380 µM
- nH (glutamate), previously published (CrGluCl-A): 1.33
- EC50 (CrGluCl-A; read-out: EC50 Glutamate, previously published): 6.9 µM
- EC50 ([4]; A:B ratio 1:1): 82 ± 35 µM
- EC50 ([4]; A:B ratio 1:4): 72 ± 47 µM
- EC50 ([4]; A:B ratio 4:1): 89 ± 47 µM

Compound: ivermectin
- Iver response to activation [1]: failed to elicit a significant response
- Iver response to activation ([1]; listed as Iver): Insensitive
- nH (ivermectin) [2]: 2.1 ± 0.67
- nH (ivermectin) ([2]; listed as Iver): 2.1 ± 0.7
- response (current activation) (CrGluCl-E): failed to show any response
- Iver response to activation [3]: Sensitive
- nH (ivermectin inhibition) (CeGluClβ (CeGLC-2); CeGLC-2): -1.74
- IC50 (CeGluClβ (CeGLC-2); read-out: IC50 ivermectin inhibition of glutamate activated current, CeGLC-2): 1.28 µM
- nH (ivermectin) (CrGluCl-A): 2.1
- EC50 (CrGluCl-A; listed as Ivermectin, read-out: EC50 Ivermectin / avermectin irreversible activation): 0.181 µM
- EC50 (CrGluCl-A; read-out: EC50 Ivermectin / avermectin irreversible activation): ~0.2 µM
- Iver response to activation ([4]; A:B ratio 1:1): Insensitive
- Iver response to activation ([4]; A:B ratio 1:4): Insensitive
- Iver response to activation ([4]; A:B ratio 4:1): Insensitive
